Assay results taken from the supplement of paper PMC10307832.

Legend:
Assay in all cases: relative viability (nuclei count vs DMSO), 5 days (fraction); higher = more cells survive
Idelalisib + Crizotinib = compound: CC[C@H](Nc1ncnc2[nH]cnc12)c1nc2cccc(F)c2c(=O)n1-c1ccccc1 [Idelalisib] + C[C@@H](Oc1cc(-c2cnn(C3CCNCC3)c2)cnc1N)c1c(Cl)ccc(F)c1Cl [Crizotinib] (partner 1 µM)
Method in brief: (§1)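 Relative viability was taken as the ratio of nuclei in treated wells to nuclei in vehicle wells. Lung cancer cell lines in 1536-well plates received compounds by pin tool one day after seeding, either one drug alone or a fixed anchor-drug dose plus five library-drug doses (not always all listed) in √10 steps. Nuclei were counted on 4× images after 5 days of treatment, and values are medians of duplicate plates.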

Idelalisib + Olaparib = compound: CC[C@H](Nc1ncnc2[nH]cnc12)c1nc2cccc(F)c2c(=O)n1-c1ccccc1 [Idelalisib] + O=C(c1cc(Cc2n[nH]c(=O)c3ccccc23)ccc1F)N1CCN(C(=O)C2CC2)CC1 [Olaparib] (partner 8 µM)
Method in brief: as §1

Pemetrexed + Lapatinib = compound: Nc1nc2[nH]cc(CCc3ccc(C(=O)N[C@@H](CCC(=O)O)C(=O)O)cc3)c2c(=O)[nH]1 [Pemetrexed] + CS(=O)(=O)CCNCc1ccc(-c2ccc3ncnc(Nc4ccc(OCc5cccc(F)c5)c(Cl)c4)c3c2)o1 [Lapatinib] (partner 2 µM)
Method in brief: as §1

Pemetrexed + Decitabine = compound: Nc1nc2[nH]cc(CCc3ccc(C(=O)N[C@@H](CCC(=O)O)C(=O)O)cc3)c2c(=O)[nH]1 [Pemetrexed] + Nc1ncn([C@H]2C[C@H](O)[C@@H](CO)O2)c(=O)n1 [Decitabine] (partner 2 µM)
Method in brief: as §1

Row | Cell Line | relative viability (Idelalisib + Crizotinib; first compound 0.04 µM) | relative viability (Idelalisib + Crizotinib; first compound 0.1265 µM) | relative viability (Idelalisib + Crizotinib; first compound 0.4 µM) | relative viability (Idelalisib + Crizotinib; first compound 1.265 µM) | relative viability (Idelalisib + Crizotinib; first compound 4 µM) | relative viability (Idelalisib + Olaparib; first compound 0.04 µM) | relative viability (Idelalisib + Olaparib; first compound 0.1265 µM) | relative viability (Idelalisib + Olaparib; first compound 0.4 µM) | relative viability (Idelalisib + Olaparib; first compound 1.265 µM) | relative viability (Idelalisib + Olaparib; first compound 4 µM) | relative viability (Pemetrexed + Lapatinib; first compound 0.002 µM) | relative viability (Pemetrexed + Lapatinib; first compound 0.006325 µM) | relative viability (Pemetrexed + Lapatinib; first compound 0.02 µM) | relative viability (Pemetrexed + Lapatinib; first compound 0.06325 µM) | relative viability (Pemetrexed + Lapatinib; first compound 0.2 µM) | relative viability (Pemetrexed + Decitabine; first compound 0.002 µM) | relative viability (Pemetrexed + Decitabine; first compound 0.006325 µM) | relative viability (Pemetrexed + Decitabine; first compound 0.02 µM) | relative viability (Pemetrexed + Decitabine; first compound 0.06325 µM) | relative viability (Pemetrexed + Decitabine; first compound 0.2 µM)
1 | 201T | 1.02 | 1.07 | 0.999 | 1.08 | 1.02 | 0.825 | 0.836 | 0.837 | 0.821 | 0.839 | 0.977 | 1.04 | 1.1 | 1.07 | 1 | 0.712 | 0.803 | 0.808 | 0.849 | 0.85
2 | LC-2-ad | 0.427 | 0.415 | 0.447 | 0.439 | 0.508 | 0.691 | 0.728 | 0.764 | 0.805 | 0.734 | 0.747 | 1.01 | 1.01 | 0.27 | 0.179 | 0.807 | 0.771 | 0.779 | 0.755 | 0.316
3 | A549 | 0.902 | 0.899 | 0.669 | 0.751 | 0.539 | 0.238 | 0.28 | 0.236 | 0.266 | 0.361 | 0.841 | 0.947 | 1.13 | 0.987 | 0.973 | 0.234 | 0.213 | 0.194 | 0.346 | 0.281
4 | LCLC-97TM1 | 0.338 | 0.212 |  | 0.422 | 0.295 | 0.328 | 0.349 | 0.324 | 0.347 | 0.378 | 1.32 | 0.653 | 1.05 | 1.21 | 0.353 | 0.241 | 0.245 | 0.203 | 0.233 | 0.209
5 | NCI-H1915 | 0.989 | 0.865 | 0.848 | 0.979 | 0.895 | 0.252 | 0.241 | 0.276 | 0.264 | 0.27 | 0.945 | 0.988 | 1.1 | 0.987 | 0.971 | 0.263 | 0.258 | 0.243 | 0.25 | 0.26
6 | NCI-H3122 | 0.296 | 0.28 | 0.3 | 0.283 | 0.289 | 0.611 | 0.626 | 0.669 | 0.584 | 0.49 | 1.01 | 1.02 | 1.02 | 0.97 | 0.847 | 0.452 | 0.379 | 0.413 | 0.417 | 0.305
7 | NCI-H1650 | 0.87 | 0.892 | 0.975 | 0.985 | 0.952 | 0.793 | 0.865 | 0.768 | 0.789 | 0.654 | 0.804 | 0.699 | 0.8 | 0.505 | 0.349 | 0.426 | 0.32 | 0.545 | 0.249 | 0.317
8 | NCI-H1993 | 0.873 | 0.893 | 0.879 | 0.834 | 0.73 | 1.16 | 1.07 | 0.866 | 0.915 | 0.791 | 0.863 | 0.887 | 0.869 | 0.754 | 0.665 | 0.619 | 0.661 | 0.622 | 0.576 | 0.461
9 | NCI-H2405 | 0.846 | 0.814 | 0.708 | 0.76 | 0.692 | 0.893 | 0.885 | 0.76 | 0.868 | 0.836 | 1.13 | 1.05 | 1.14 | 1.04 | 1.07 | 0.717 | 0.649 | 0.691 | 0.687 | 0.685
10 | NCI-H661 | 1.04 |  | 1.08 | 1.14 | 0.943 | 0.821 | 0.783 | 0.738 | 0.888 | 0.764 | 0.731 | 0.503 | 0.593 | 0.417 | 0.586 | 0.586 | 0.513 | 0.646 | 0.608 | 0.559
